# Reference: US4542137A, “Alkylaminodesoxy-1.4;3.6-dianhydrohexitol nitrates substituted by purine bases and pharmaceutical compositions” (priority 1980, dated 1985)
# Where two headings read alike, the source gives them in different places.
# Columns and labels:
# [1] = acute toxicity in mice according to the method of Lichtfield and Wilcoxon; details: mouse, in vivo
# Protocol: As to example 1d, the following values for acute toxicity were determined with a greater number of mice, according to the method of Lichtfield and Wilcoxon: […]
# [2] = test system: mongrel cats; assay: inotropic and frequency-lowering heart circulation effectiveness on mongrel cats, intravenous; format: in vivo; set-up: heart frequency previously / dp/dt previously / dp/dt afterwards: unit not given beside the values; details: cat; for blood pressure afterwards / dp/dt afterwards / heart frequency afterwards: after; for blood pressure previously / dp/dt previously / heart frequency previously: before; for blood pressure Δ / dp/dt Δ / heart frequency Δ: change
# Protocol: (§1) The animals were narcotised with a mixture of chloralose-urethane (1.2 g./kg. urethane+40 mg./kg. chloralose administered i.p.). They breathed spontaneously through a tracheal canula. The A. carotis sinistra was used in order to place a catheter tip manometer into the left heart chamber. The V. jugularis served for injection purposes. Via the A. femoralis dextra, a catheter was pushed in up to the Aorta descendans and attached to a pressure recorder (Statham P 23 Db). The heart frequency was recorded with a pulse frequency measurer (Firm Hugo Sachs Elektronik) from the left ventricular pressure signal.
# [3] = test system: isolated rat aorta preparations; assay: spasmolytic effectiveness on isolated rat aorta preparations (noradrenaline- and potassium chloride-induced contractions)
# [4] = test system: mongrel cats; assay: inotropic and frequency-lowering heart circulation effectiveness on mongrel cats, intraduodenal; format: in vivo; details: cat, 5 mg/kg intraduodenal
# Protocol: as §1, with “A. femoralis,” for “A. femoralis dextra,”, “pushed” for “pushed in”, “up into” for “up to”, “measurer (firm” for “measurer (Firm”, “signal. A duodenal loop was exposed by a laparotomy. The substances to be tested were injected directly into the lumen.” for “signal.”
# [5] = test system: guinea pigs; assay: blood pressure-lowering effectiveness on narcotised guinea pigs, i.v.; details: for blood pressure afterwards: after; for blood pressure previously: before; for blood pressure Δ: change
# [6] = read-out: ED50 for spasmolytic action, Noradrenaline spasm (50% inhibition)
# [7] = read-out: ED50 for spasmolytic action, potassium chloride spasm (50% inhibition)
smiles,measurement,setting,value
"Cn1c(=O)c2c(ncn2CCCN[C@H]2CO[C@H]3[C@@H]2OC[C@@H]3O[N+](=O)[O-])n(C)c1=O [Example 1d, 5-(3-Theophyllin-7-ylpropyl)-amino-5-desoxy-1.4;3.6-dianhydro-L-iditol 2-nitrate]",LD50,"[1]; ip, printed range (678.6-851.2), read-out: LD50 i.p.",760 mg/kg
same,LD50,"[1]; iv, printed range (190.4-251.9), read-out: LD50 i.v.",219 mg/kg
same,LD50,"[1]; po, read-out: LD50 p.o.",1600 mg/kg
same,blood pressure WD,[2]; 0.25 mg/kg i.v.,27.71 min
same,dp/dt WD,[2]; 0.25 mg/kg i.v.,15.57 min
same,blood pressure afterwards,[2]; 0.25 mg/kg i.v.,64.86
same,dp/dt afterwards,[2]; 0.25 mg/kg i.v.,6086
same,heart frequency afterwards,[2]; 0.25 mg/kg i.v.,184.57
same,blood pressure previously,[2]; 0.25 mg/kg i.v.,103.00
same,dp/dt previously,[2]; 0.25 mg/kg i.v.,7371
same,heart frequency previously,[2]; 0.25 mg/kg i.v.,180.86
same,blood pressure Δ,[2]; 0.25 mg/kg i.v.,-38.14
same,dp/dt Δ,[2]; 0.25 mg/kg i.v.,-1285
same,heart frequency Δ,[2]; 0.25 mg/kg i.v.,+3.71
same,blood pressure WD,[2]; 0.50 mg/kg i.v.,20.21 min
same,dp/dt WD,[2]; 0.50 mg/kg i.v.,24.57 min
same,blood pressure afterwards,[2]; 0.50 mg/kg i.v.,61.57
same,dp/dt afterwards,[2]; 0.50 mg/kg i.v.,5300
same,heart frequency afterwards,[2]; 0.50 mg/kg i.v.,182.29
same,blood pressure previously,[2]; 0.50 mg/kg i.v.,101.86
same,dp/dt previously,[2]; 0.50 mg/kg i.v.,6614
same,heart frequency previously,[2]; 0.50 mg/kg i.v.,178.29
same,blood pressure Δ,[2]; 0.50 mg/kg i.v.,-40.29
same,dp/dt Δ,[2]; 0.50 mg/kg i.v.,-1314
same,heart frequency Δ,[2]; 0.50 mg/kg i.v.,+4.00
same,blood pressure WD,[2]; 1.00 mg/kg i.v.,24.29 min
same,dp/dt WD,[2]; 1.00 mg/kg i.v.,19.58 min
same,blood pressure afterwards,[2]; 1.00 mg/kg i.v.,59.86
same,dp/dt afterwards,[2]; 1.00 mg/kg i.v.,5186
same,heart frequency afterwards,[2]; 1.00 mg/kg i.v.,182.00
same,blood pressure previously,[2]; 1.00 mg/kg i.v.,103.43
same,dp/dt previously,[2]; 1.00 mg/kg i.v.,5957
same,heart frequency previously,[2]; 1.00 mg/kg i.v.,174.00
same,blood pressure Δ,[2]; 1.00 mg/kg i.v.,-43.57
same,dp/dt Δ,[2]; 1.00 mg/kg i.v.,-771
same,heart frequency Δ,[2]; 1.00 mg/kg i.v.,+8.00
same,blood pressure WD,[2]; 2.50 mg/kg i.v.,> 10 min
same,dp/dt WD,[2]; 2.50 mg/kg i.v.,6.42 min
same,blood pressure afterwards,[2]; 2.50 mg/kg i.v.,63.88
same,dp/dt afterwards,[2]; 2.50 mg/kg i.v.,6550
same,heart frequency afterwards,[2]; 2.50 mg/kg i.v.,180.33
same,blood pressure previously,[2]; 2.50 mg/kg i.v.,107.50
same,dp/dt previously,[2]; 2.50 mg/kg i.v.,6383
same,heart frequency previously,[2]; 2.50 mg/kg i.v.,169.67
same,blood pressure Δ,[2]; 2.50 mg/kg i.v.,-43.62
same,dp/dt Δ,[2]; 2.50 mg/kg i.v.,+167
same,heart frequency Δ,[2]; 2.50 mg/kg i.v.,+10.66
same,IC50,[3]; [6],0.56 µM
same,IC50,[3]; [7],2.9 µM
same,blood pressure,[4]; 0 min,115.4 ± 14.4 mm. Hg
same,dp/dt,[4]; 0 min,6000 ± 1367 mm sec.
same,frequency,[4]; 0 min,173.2 ± 14.5 min⁻¹
same,blood pressure,[4]; 10 min,86.0 ± 13.8 mm. Hg
same,dp/dt,[4]; 10 min,4880 ± 1371 mm sec.
same,frequency,[4]; 10 min,173.6 ± 14.8 min⁻¹
same,blood pressure Δ,[4]; 10 min vs 0,-29.4 mm. Hg
same,dp/dt Δ,[4]; 10 min vs 0,-1120 mm sec.
same,blood pressure,[4]; 30 min,88.6 ± 14.8 mm. Hg
same,dp/dt,[4]; 30 min,4500 ± 1312 mm sec.
same,frequency,[4]; 30 min,166.0 ± 15.6 min⁻¹
same,blood pressure Δ,[4]; 30 min vs 0,-26.8 mm. Hg
same,dp/dt Δ,[4]; 30 min vs 0,-1440 mm sec.
same,blood pressure,[4]; 60 min,95.0 ± 14.4 mm. Hg
same,dp/dt,[4]; 60 min,5020 ± 1330 mm sec.
same,frequency,[4]; 60 min,168.4 ± 14.0 min⁻¹
same,blood pressure Δ,[4]; 60 min vs 0,-20.4 mm. Hg
same,dp/dt Δ,[4]; 60 min vs 0,-980 mm sec.
same,blood pressure,[4]; 120 min,99.4 ± 13.2 mm. Hg
same,dp/dt,[4]; 120 min,5100 ± 1341 mm sec.
same,frequency,[4]; 120 min,164.8 ± 13.2 min⁻¹
same,blood pressure Δ,[4]; 120 min vs 0,-16.0 mm. Hg
same,dp/dt Δ,[4]; 120 min vs 0,-900 mm sec.
same,blood pressure afterwards,[5]; 0.25 mg/kg i.v.,49.75 ± 2.78 mm. Hg
same,blood pressure previously,[5]; 0.25 mg/kg i.v.,67.75 ± 3.27 mm. Hg
same,blood pressure Δ,[5]; 0.25 mg/kg i.v.,-18.00 mm. Hg
same,blood pressure afterwards,[5]; 1.00 mg/kg i.v.,40.00 ± 2.12 mm. Hg
same,blood pressure previously,[5]; 1.00 mg/kg i.v.,68.00 ± 3.85 mm. Hg
same,blood pressure Δ,[5]; 1.00 mg/kg i.v.,-28.00 mm. Hg
same,blood pressure afterwards,[5]; 2.50 mg/kg i.v.,37.50 ± 1.76 mm. Hg
same,blood pressure previously,[5]; 2.50 mg/kg i.v.,66.25 ± 2.66 mm. Hg
same,blood pressure Δ,[5]; 2.50 mg/kg i.v.,-28.75 mm. Hg
same,blood pressure-lowering effectiveness compared with ISMN or ISDN,"[5]; i.v., narcotised guinea pigs",more effective than ISMN or ISDN
"CN(CCCn1cnc2c1c(=O)n(C)c(=O)n2C)[C@H]1CO[C@H]2[C@@H]1OC[C@@H]2O[N+](=O)[O-] [Example 9c, 5-[N-Methyl-N-(3-theophyllin-7-ylpropyl)-amino]-5-desoxy-1.4;3.6-dianhydro-L-iditol 2-nitrate]",IC50,[3]; [6],2.95 µM
same,IC50,[3]; [7],45.9 µM
